In the NIST ThermoML archive (doi:10.1021/je400250u):

Tests used:
[1] = xn = mol fraction of the nth substance listed; conditions: 100 kPa, Liquid; for viscosity: Capillary tube (Ostwald / Ubbelohde) method; for mass density: Vibrating tube method
[2] = refractive index (Na D-line) (dimensionless); xn = mol fraction of the nth substance listed; conditions: Liquid, Standard Abbe refractometry

C1CC[C@H]2CCCC[C@@H]2C1 [trans-decahydronaphthalene] + CCCCCCCCCC
[1]
Conditions | mass density [kg/m3] | viscosity [mPa·s]
293.15 K, x1 = 0.1035 | 743.5 | 0.98
293.15 K, x1 = 0.2016 | 755.54 | 1.035
293.15 K, x1 = 0.3001 | 768 | 1.099
293.15 K, x1 = 0.3994 | 781.01 | 1.175
293.15 K, x1 = 0.5036 | 795.1 | 1.272
293.15 K, x1 = 0.6062 | 809.53 | 1.388
293.15 K, x1 = 0.6989 | 822.98 | 1.514
293.15 K, x1 = 0.7891 | 836.46 | 1.649
293.15 K, x1 = 0.8949 | 852.8 | 1.848
293.15 K, x1 = 1 | 869.78 | 2.112
298.15 K, x1 = 0.1035 | 739.74 | 0.91
298.15 K, x1 = 0.2016 | 751.79 | 0.958
298.15 K, x1 = 0.3001 | 764.27 | 1.019
298.15 K, x1 = 0.3994 | 777.28 | 1.087
298.15 K, x1 = 0.5036 | 791.38 | 1.174
298.15 K, x1 = 0.6062 | 805.81 | 1.28
298.15 K, x1 = 0.6989 | 819.26 | 1.394
298.15 K, x1 = 0.7891 | 832.75 | 1.514
298.15 K, x1 = 0.8949 | 849.09 | 1.694
298.15 K, x1 = 1 | 866.07 | 1.925
303.15 K, x1 = 0.1035 | 735.97 | 0.848
303.15 K, x1 = 0.2016 | 748.02 | 0.89
303.15 K, x1 = 0.3001 | 760.51 | 0.946
303.15 K, x1 = 0.3994 | 773.52 | 1.01
303.15 K, x1 = 0.5036 | 787.63 | 1.09
303.15 K, x1 = 0.6062 | 802.07 | 1.185
303.15 K, x1 = 0.6989 | 815.53 | 1.285
303.15 K, x1 = 0.7891 | 829.02 | 1.396
303.15 K, x1 = 0.8949 | 845.37 | 1.555
303.15 K, x1 = 1 | 862.34 | 1.769
308.15 K, x1 = 0.1035 | 732.17 | 0.794
308.15 K, x1 = 0.2016 | 744.24 | 0.834
308.15 K, x1 = 0.3001 | 756.74 | 0.884
308.15 K, x1 = 0.3994 | 769.76 | 0.941
308.15 K, x1 = 0.5036 | 783.88 | 1.013
308.15 K, x1 = 0.6062 | 798.32 | 1.101
308.15 K, x1 = 0.6989 | 811.79 | 1.197
308.15 K, x1 = 0.7891 | 825.29 | 1.293
308.15 K, x1 = 0.8949 | 841.64 | 1.436
308.15 K, x1 = 1 | 858.61 | 1.628
313.15 K, x1 = 0.1035 | 728.37 | 0.744
313.15 K, x1 = 0.2016 | 740.45 | 0.778
313.15 K, x1 = 0.3001 | 752.95 | 0.828
313.15 K, x1 = 0.3994 | 765.99 | 0.881
313.15 K, x1 = 0.5036 | 780.11 | 0.947
313.15 K, x1 = 0.6062 | 794.56 | 1.024
313.15 K, x1 = 0.6989 | 808.04 | 1.113
313.15 K, x1 = 0.7891 | 821.54 | 1.201
313.15 K, x1 = 0.8949 | 837.9 | 1.33
313.15 K, x1 = 1 | 854.88 | 1.505
318.15 K, x1 = 0.1035 | 724.55 | 0.702
318.15 K, x1 = 0.2016 | 736.64 | 0.734
318.15 K, x1 = 0.3001 | 749.16 | 0.777
318.15 K, x1 = 0.3994 | 762.2 | 0.826
318.15 K, x1 = 0.5036 | 776.34 | 0.887
318.15 K, x1 = 0.6062 | 790.8 | 0.959
318.15 K, x1 = 0.6989 | 804.28 | 1.032
318.15 K, x1 = 0.7891 | 817.79 | 1.119
318.15 K, x1 = 0.8949 | 834.16 | 1.237
318.15 K, x1 = 1 | 851.14 | 1.394
323.15 K, x1 = 0.1035 | 720.72 | 0.662
323.15 K, x1 = 0.2016 | 732.82 | 0.696
323.15 K, x1 = 0.3001 | 745.35 | 0.732
323.15 K, x1 = 0.3994 | 758.4 | 0.777
323.15 K, x1 = 0.5036 | 772.55 | 0.834
323.15 K, x1 = 0.6062 | 787.02 | 0.896
323.15 K, x1 = 0.6989 | 800.51 | 0.966
323.15 K, x1 = 0.7891 | 814.04 | 1.046
323.15 K, x1 = 0.8949 | 830.41 | 1.154
323.15 K, x1 = 1 | 847.4 | 1.295

refractive index, [2], 101 kPa
Conditions | x1 = 0.1035 | x1 = 0.2016 | x1 = 0.3001 | x1 = 0.3994 | x1 = 0.5036 | x1 = 0.6062 | x1 = 0.6989 | x1 = 0.7891 | x1 = 0.8949 | x1 = 1
298.15 K | 1.4144 | 1.4192 | 1.4243 | 1.4301 | 1.4355 | 1.4414 | 1.4471 | 1.4524 | 1.4592 | 1.4662
308.15 K | 1.4099 | 1.4153 | 1.4204 | 1.4256 | 1.4317 | 1.4371 | 1.4431 | 1.4484 | 1.4553 | 1.4618
318.15 K | 1.4055 | 1.4112 | 1.4162 | 1.4211 | 1.4271 | 1.4336 | 1.4389 | 1.4448 | 1.4518 | 1.4581

C1CC[C@H]2CCCC[C@@H]2C1 [trans-decahydronaphthalene] + CCCCCCCCCCC
[1]
Conditions | mass density [kg/m3] | viscosity [mPa·s]
293.15 K, x1 = 0.1041 | 751.02 | 1.214
293.15 K, x1 = 0.2052 | 761.89 | 1.258
293.15 K, x1 = 0.3027 | 772.86 | 1.315
293.15 K, x1 = 0.3999 | 784.34 | 1.369
293.15 K, x1 = 0.4997 | 796.76 | 1.444
293.15 K, x1 = 0.5991 | 809.74 | 1.529
293.15 K, x1 = 0.6991 | 823.47 | 1.625
293.15 K, x1 = 0.8019 | 838.4 | 1.752
293.15 K, x1 = 0.8992 | 853.35 | 1.899
293.15 K, x1 = 1 | 869.78 | 2.112
298.15 K, x1 = 0.1041 | 747.37 | 1.12
298.15 K, x1 = 0.2052 | 758.22 | 1.159
298.15 K, x1 = 0.3027 | 769.19 | 1.212
298.15 K, x1 = 0.3999 | 780.66 | 1.26
298.15 K, x1 = 0.4997 | 793.09 | 1.326
298.15 K, x1 = 0.5991 | 806.06 | 1.406
298.15 K, x1 = 0.6991 | 819.79 | 1.492
298.15 K, x1 = 0.8019 | 834.72 | 1.606
298.15 K, x1 = 0.8992 | 849.65 | 1.741
298.15 K, x1 = 1 | 866.07 | 1.925
303.15 K, x1 = 0.1041 | 743.67 | 1.037
303.15 K, x1 = 0.2052 | 754.53 | 1.073
303.15 K, x1 = 0.3027 | 765.5 | 1.121
303.15 K, x1 = 0.3999 | 776.97 | 1.165
303.15 K, x1 = 0.4997 | 789.4 | 1.222
303.15 K, x1 = 0.5991 | 802.37 | 1.296
303.15 K, x1 = 0.6991 | 816.09 | 1.376
303.15 K, x1 = 0.8019 | 831.02 | 1.478
303.15 K, x1 = 0.8992 | 845.94 | 1.597
303.15 K, x1 = 1 | 862.34 | 1.769
308.15 K, x1 = 0.1041 | 739.97 | 0.965
308.15 K, x1 = 0.2052 | 750.83 | 0.996
308.15 K, x1 = 0.3027 | 761.8 | 1.041
308.15 K, x1 = 0.3999 | 773.28 | 1.081
308.15 K, x1 = 0.4997 | 785.7 | 1.136
308.15 K, x1 = 0.5991 | 798.67 | 1.201
308.15 K, x1 = 0.6991 | 812.39 | 1.274
308.15 K, x1 = 0.8019 | 827.31 | 1.366
308.15 K, x1 = 0.8992 | 842.22 | 1.473
308.15 K, x1 = 1 | 858.61 | 1.628
313.15 K, x1 = 0.1041 | 736.25 | 0.9
313.15 K, x1 = 0.2052 | 747.11 | 0.929
313.15 K, x1 = 0.3027 | 758.09 | 0.972
313.15 K, x1 = 0.3999 | 769.57 | 1.006
313.15 K, x1 = 0.4997 | 781.99 | 1.058
313.15 K, x1 = 0.5991 | 794.96 | 1.117
313.15 K, x1 = 0.6991 | 808.67 | 1.182
313.15 K, x1 = 0.8019 | 823.59 | 1.267
313.15 K, x1 = 0.8992 | 838.5 | 1.364
313.15 K, x1 = 1 | 854.88 | 1.505
318.15 K, x1 = 0.1041 | 732.53 | 0.842
318.15 K, x1 = 0.2052 | 743.39 | 0.869
318.15 K, x1 = 0.3027 | 754.37 | 0.908
318.15 K, x1 = 0.3999 | 765.85 | 0.94
318.15 K, x1 = 0.4997 | 778.27 | 0.988
318.15 K, x1 = 0.5991 | 791.24 | 1.042
318.15 K, x1 = 0.6991 | 804.95 | 1.101
318.15 K, x1 = 0.8019 | 819.87 | 1.18
318.15 K, x1 = 0.8992 | 834.77 | 1.267
318.15 K, x1 = 1 | 851.14 | 1.394
323.15 K, x1 = 0.1041 | 728.79 | 0.789
323.15 K, x1 = 0.2052 | 739.66 | 0.815
323.15 K, x1 = 0.3027 | 750.64 | 0.852
323.15 K, x1 = 0.3999 | 762.12 | 0.881
323.15 K, x1 = 0.4997 | 774.54 | 0.924
323.15 K, x1 = 0.5991 | 787.51 | 0.975
323.15 K, x1 = 0.6991 | 801.22 | 1.028
323.15 K, x1 = 0.8019 | 816.14 | 1.1
323.15 K, x1 = 0.8992 | 831.03 | 1.18
323.15 K, x1 = 1 | 847.4 | 1.295

refractive index, [2], 100 kPa
Conditions | x1 = 0.1041 | x1 = 0.2052 | x1 = 0.3027 | x1 = 0.3999 | x1 = 0.4997 | x1 = 0.5991 | x1 = 0.6991 | x1 = 0.8019 | x1 = 0.8992 | x1 = 1
298.15 K | 1.4188 | 1.423 | 1.4272 | 1.4319 | 1.4367 | 1.4421 | 1.4476 | 1.4535 | 1.4594 | 1.4662
308.15 K | 1.4143 | 1.419 | 1.4232 | 1.428 | 1.4331 | 1.4378 | 1.4434 | 1.4496 | 1.4559 | 1.4618
318.15 K | 1.4099 | 1.4146 | 1.4191 | 1.4236 | 1.4281 | 1.4332 | 1.439 | 1.4452 | 1.4515 | 1.4581
